Converted amounts (≈) assume the structure as drawn. The source made the active and inactive calls. The calls are words filed in the database; no cut-off is given here.

The subject of data set [1] is Enterococcus faecium. Put plainly: Antibacterial activity against pleuromutilin-resistant Enterococcus faecium 18SC29-2 harboring (lsa(E)-) genotype assessed as inhibition of visible growth of bacteria incubated for 24 hrs by CLSI protocol based broth-dilution method. In kind it is functional.
Data set [2] deals with Enterococcus faecium. Put plainly: Antibacterial activity against pleuromutilin-resistant Enterococcus faecium 18FJZ1-1 harboring (lsa(E)+) genotype assessed as inhibition of visible growth of bacteria incubated for 24 hrs by CLSI protocol based broth-dilution method. In kind it is functional.
For data set [3], the system named is Staphylococcus aureus. Put plainly: Antibacterial activity against methicillin-resistant Staphylococcus aureus J1 harboring (lsa(E)+) genotype assessed as inhibition of visible growth of bacteria incubated for 24 hrs by CLSI protocol based broth-dilution method. In kind it is functional.
Data set [4] deals with Staphylococcus simulans. Put plainly: Antibacterial activity against pleuromutilin-resistant Staphylococcus simulans isolate 55-1 harboring cfr+ genotype assessed as inhibition of visible growth of bacteria incubated for 24 hrs by CLSI protocol based broth-dilution method. In kind it is functional.
For data set [5], the system named is Staphylococcus aureus. Put plainly: Antibacterial activity against Staphylococcus aureus ATCC 29213 assessed as inhibition of visible growth of bacteria incubated for 24 hrs by CLSI protocol based broth-dilution method. In kind it is functional.
Data set [6] deals with Staphylococcus epidermidis. Put plainly: Antibacterial activity against Staphylococcus epidermidis ATCC 12228 assessed as inhibition of visible growth of bacteria incubated for 24 hrs by CLSI protocol based broth-dilution method. In kind it is functional.
Data set [7] deals with Staphylococcus aureus. Put plainly: Antibacterial activity against Staphylococcus aureus USA 300 assessed as inhibition of visible growth of bacteria incubated for 24 hrs by CLSI protocol based broth-dilution method. In kind it is functional.
Data set [8] deals with Staphylococcus aureus. Put plainly: Antibacterial activity against methicilin-resistant Staphylococcus aureus isolate 15-2 assessed as inhibition of visible growth of bacteria incubated for 24 hrs by CLSI protocol based broth-dilution method. In kind it is functional.
Data set [9] relates to Staphylococcus aureus. Put plainly: Antibacterial activity against Staphylococcus aureus ATCC 25923 assessed as inhibition of visible growth of bacteria incubated for 24 hrs by CLSI protocol based broth-dilution method. In kind it is functional.
The subject of data set [10] is Staphylococcus aureus. Put plainly: Antibacterial activity against Staphylococcus aureus ATCC 33591 assessed as inhibition of visible growth of bacteria incubated for 24 hrs by CLSI protocol based broth-dilution method. In kind it is functional.
The test system of data set [11] is Staphylococcus aureus. Put plainly: Antibacterial activity against Staphylococcus aureus ATCC 43300 assessed as inhibition of visible growth of bacteria incubated for 24 hrs by CLSI protocol based broth-dilution method. In kind it is functional.
In data set [12] the test system is Staphylococcus aureus. Put plainly: Antibacterial activity against Staphylococcus aureus ATCC 700788 assessed as inhibition of visible growth of bacteria incubated for 24 hrs by CLSI protocol based broth-dilution method. In kind it is functional.
Data set [13] concerns Staphylococcus aureus. Put plainly: Antibacterial activity against Staphylococcus aureus ATCC 700699 assessed as inhibition of visible growth of bacteria incubated for 24 hrs by CLSI protocol based broth-dilution method. In kind it is functional.
The subject of data set [14] is Streptococcus pneumoniae. Put plainly: Antibacterial activity against penicillin resistant Streptococcus pneumoniae isolate 20-1 assessed as inhibition of visible growth of bacteria incubated for 24 hrs by CLSI protocol based broth-dilution method. In kind it is functional.
Data set [15] deals with Streptococcus pneumoniae. Put plainly: Antibacterial activity against penicillin sensitive Streptococcus pneumoniae isolate 20-1 assessed as inhibition of visible growth of bacteria incubated for 24 hrs by CLSI protocol based broth-dilution method. In kind it is functional.
For data set [16], the system named is Staphylococcus epidermidis. Put plainly: Antibacterial activity against methicillin-sensitive Staphylococcus epidermidis isolate 20-15 assessed as inhibition of visible growth of bacteria incubated for 24 hrs by CLSI protocol based broth-dilution method. In kind it is functional.
Data set [17] has as its system Enterococcus faecalis. Put plainly: Antibacterial activity against Enterococcus faecalis ATCC 29212 assessed as inhibition of visible growth of bacteria incubated for 24 hrs by CLSI protocol based broth-dilution method. In kind it is functional.
Data set [18] relates to Enterococcus faecalis. Put plainly: Antibacterial activity against Enterococcus faecalis HB 24-4 assessed as inhibition of visible growth of bacteria incubated for 24 hrs by CLSI protocol based broth-dilution method. In kind it is functional.
Data set [19] concerns Escherichia coli. Put plainly: Antibacterial activity against Escherichia coli ATCC 25922 assessed as inhibition of visible growth of bacteria incubated for 24 hrs by CLSI protocol based broth-dilution method. In kind it is functional.
For data set [20], the system named is Acinetobacter baumannii. Put plainly: Antibacterial activity against Acinetobacter baumannii ATCC 19606 assessed as inhibition of visible growth of bacteria incubated for 24 hrs by CLSI protocol based broth-dilution method. In kind it is functional.
The test system of data set [21] is Staphylococcus aureus. Put plainly: Antibacterial activity against methicillin-resistant Staphylococcus aureus USA 300 assessed as inhibition of bacterial growth at 1 times of MIC measured upto 24 hrs by time-kill kinetics assay. In kind it is functional, organism-based.
Data set [22] relates to Staphylococcus aureus. Put plainly: Bactericidal activity against methicillin-resistant Staphylococcus aureus USA 300 assessed as inhibition of bacterial growth at 8 times of MIC by time kill kinetics assay. Particulars: time <= 24.0 hrs, TDE = time-dependent effect. In kind it is functional, organism-based.
The nature of data set [23]: Stability in mouse liver microsomes assessed as drug metabolism at 1 uM measured within 1 hrs in presence of NADPH by LC-MS analysis. In kind it is ADME, Microsome. Particulars: read-out: Drug metabolism.
A short description of data set [24]: Stability in rat liver microsomes assessed as drug metabolism at 1 uM measured within 1 hrs in presence of NADPH by LC-MS analysis. In kind it is ADME, Microsome. The conditions noted are these: read-out: Drug metabolism.
A short description of data set [25]: Stability in human liver microsomes assessed as drug metabolism at 1 uM measured within 1 hrs in presence of NADPH by LC-MS analysis. In kind it is ADME, Microsome. The conditions noted are these: read-out: Drug metabolism. In general terms: Liver microsomes are vesicles of endoplasmic reticulum, rich in cytochrome P450 enzymes.
Data set [26] relates to Staphylococcus aureus. Put plainly: Antibacterial activity against methicillin-resistant Staphylococcus aureus USA 300 assessed as number of colonies with prevalence of spontaneous mutation at 4 times of MIC incubated for 48 hrs by agar dilution assay. In kind it is functional. In general terms: Agar dilution tests growth on a series of plates holding different concentrations.

The subject of data set [27] is Staphylococcus aureus. Put plainly: Antibacterial activity against methicillin-resistant Staphylococcus aureus USA 300 assessed as number of colonies with prevalence of spontaneous mutation at 8 times of MIC incubated for 48 hrs by agar dilution assay. In kind it is functional.
Data set [28] concerns Streptococcus pneumoniae. Put plainly: Antibacterial activity against penicillin resistant Streptococcus pneumoniae isolate 20-2 assessed as inhibition of visible growth of bacteria incubated for 24 hrs by CLSI protocol based broth-dilution method. In kind it is functional.
In data set [29] the test system is Streptococcus pneumoniae. Put plainly: Antibacterial activity against penicillin resistant Streptococcus pneumoniae isolate 20-3 assessed as inhibition of visible growth of bacteria incubated for 24 hrs by CLSI protocol based broth-dilution method. In kind it is functional.
Data set [30] concerns Streptococcus pneumoniae. Put plainly: Antibacterial activity against penicillin resistant Streptococcus pneumoniae isolate 20-4 assessed as inhibition of visible growth of bacteria incubated for 24 hrs by CLSI protocol based broth-dilution method. In kind it is functional.
The test system of data set [31] is Staphylococcus epidermidis. Put plainly: Antibacterial activity against methicillin-resistant Staphylococcus epidermidis isolate 20-26 assessed as inhibition of visible growth of bacteria incubated for 24 hrs by CLSI protocol based broth-dilution method. In kind it is functional.
Data set [32] deals with Staphylococcus epidermidis. Put plainly: Antibacterial activity against methicillin-resistant Staphylococcus epidermidis isolate 20-27 assessed as inhibition of visible growth of bacteria incubated for 24 hrs by CLSI protocol based broth-dilution method. In kind it is functional.
The subject of data set [33] is Staphylococcus epidermidis. Put plainly: Antibacterial activity against methicillin-resistant Staphylococcus epidermidis isolate 20-28 assessed as inhibition of visible growth of bacteria incubated for 24 hrs by CLSI protocol based broth-dilution method. In kind it is functional.
In data set [34] the test system is Staphylococcus epidermidis. Put plainly: Antibacterial activity against methicillin-resistant Staphylococcus epidermidis isolate 20-29 assessed as inhibition of visible growth of bacteria incubated for 24 hrs by CLSI protocol based broth-dilution method. In kind it is functional.
Data set [35] has as its system Staphylococcus aureus. Put plainly: Antibacterial activity against methicillin resistant Staphylococcus aureus USA 300 infected in peritonitis sepsis CD-1 mouse model assessed as mouse survival rate at 40 mg/kg, iv administered as single dose and measured after 7 days relative to control. The conditions noted are these: USA 300, 168 h, time 7 day. In kind it is functional.

A word on the MIC: it is the least concentration at which growth counts as inhibited. In the case of `C=C[C@]1(C)C[C@@H](OC(=O)CSC(C)(C)CNC(=O)[C@H](N)C(C)C)[C@]2(C)[C@H](C)CC[C@]3(CCC(=O)[C@H]32)[C@@H](C)[C@@H]1O` [VALNEMULIN], the MIC in [1] was ≤ 0.06 mg/L; in data set [2], 8 mg/L (≈ 14.2 µM); in data set [3], > 32 mg/L; in data set [4], 8 mg/L (≈ 14.2 µM).

As for `C=C[C@]1(C)C[C@@H](OC(=O)CSc2cccc(NC(=O)c3ccc(B(O)O)cc3)c2)[C@]2(C)[C@H](C)CC[C@]3(CCC(=O)[C@H]32)[C@@H](C)[C@@H]1O`, the MIC is ≤ 0.016 mg/L in data set [5]; 0.016 mg/L (≈ 0.0253 µM) in data set [6]; ≤ 0.03 mg/L in data set [7]; ≤ 0.03 mg/L in data set [8]; ≤ 0.03 mg/L in data set [9]; ≤ 0.03 mg/L in [10]. Moreover, the MIC in data set [11] is ≤ 0.03 mg/L; in data set [12], ≤ 0.03 mg/L; in data set [13], ≤ 0.03 mg/L; in data set [14], 0.06 mg/L (≈ 0.0947 µM); in data set [15], ≤ 0.03 mg/L; in [16], ≤ 0.03 mg/L. Besides, the MIC in data set [17] was 0.25 mg/L (≈ 0.395 µM); in data set [18], 0.25 mg/L (≈ 0.395 µM); in data set [19] it was 64 mg/L (≈ 101 µM); in [20], > 64 mg/L; in [1], ≤ 0.03 mg/L; in data set [2] it was 0.5 mg/L (≈ 0.789 µM). Besides, the minimal inhibitory concentration (MIC) in [3] is 2 mg/L (≈ 3.16 µM); in data set [4], 1 mg/L (≈ 1.58 µM). The result in [21] was Active. For the same compound, the Activity result is “Tde” in data set [22], <4.7 10^-11No_unit in data set [26] and <4.7 10^-11No_unit in [27]. Also, the metabolised at 1 h, 1 µM in data set [23] is 87.5%; in data set [24], 84.6%; in data set [25], 78.8%.

With `C=C[C@]1(C)C[C@@H](OC(=O)CS[C@@H]2CC[C@@H](N)C[C@H]2O)[C@]2(C)[C@H](C)CC[C@]3(CCC(=O)[C@H]32)[C@@H](C)[C@@H]1O` [LEFAMULIN], the MIC in data set [5] was 0.25 mg/L (≈ 0.492 µM); in data set [7], 0.25 mg/L (≈ 0.492 µM); in data set [8] it was 0.5 mg/L (≈ 0.985 µM); in data set [9], ≤ 0.25 mg/L; in data set [10], 0.25 mg/L (≈ 0.492 µM); in [11] it was 0.25 mg/L (≈ 0.492 µM). The MIC was 0.5 mg/L (≈ 0.985 µM) in data set [12]; 0.25 mg/L (≈ 0.492 µM) in data set [13]; 1 mg/L (≈ 1.97 µM) in data set [14]; 1 mg/L (≈ 1.97 µM) in data set [28]; 1 mg/L (≈ 1.97 µM) in data set [29]; 1 mg/L (≈ 1.97 µM) in data set [30]. The MIC in data set [15] was found to be 1 mg/L (≈ 1.97 µM); in data set [31] it was 0.5 mg/L (≈ 0.985 µM); in data set [32], 0.25 mg/L (≈ 0.492 µM); in data set [33], 0.25 mg/L (≈ 0.492 µM); in [34], 0.125 mg/L (≈ 0.246 µM); in [16] it was 0.25 mg/L (≈ 0.492 µM). Also, the MIC in data set [17] was 32 mg/L (≈ 63 µM); in [18] it was 2 mg/L (≈ 3.94 µM); in [19] it was 8 mg/L (≈ 15.8 µM); in [20], > 64 mg/L. For the same compound, the metabolised at 1 h, 1 µM was found to be 41.4% in data set [23], 80.2% in data set [24] and 84% in data set [25]. Further, the survival at 40 mg/kg in data set [35] came out at 33%.

As to `C=C[C@]1(C)C[C@@H](OC(=O)CSCCN(CC)CC)[C@]2(C)[C@H](C)CC[C@]3(CCC(=O)[C@H]32)[C@@H](C)[C@@H]1O` [TIAMULIN], the MIC in data set [1] is 2 mg/L (≈ 4.05 µM); in data set [2] it was > 32 mg/L; in [3], > 32 mg/L; in [4], > 32 mg/L.

The values above are taken from ChEMBL document CHEMBL5614394, “Novel pleuromutilin derivatives conjugated with phenyl-sulfide and boron-containing moieties as potent antibacterial agents against antibiotic-resistant bacteria” (Eur J Med Chem, 2024).
